Results published in patent US11608320B2, “Oxazolidinone hydroxamic acid derivatives” (KUWAIT UNIVERSITY, priority 2020, dated 2023).

How the values were obtained:
isolated human monocytes = experiment: In vitro toxicity testing (MTT viability); format: cell-based; details: concentrations up to 50 μM, 3 h or 24 h, n=3
Method: In Vitro Toxicity Testing: Adherent human monocytes, prepared as described above, were used. The cells were cultured with various concentrations of the test compounds or vehicle, or with 0.05% Triton-X as positive control for 3 h or 24 h. At the end of the culture, cell viability was determined using the MTT (3-(4,5 dimethylthiazol-2-yl)-2,5-diphenyltetrazolium bromide) assay method. Briefly, 15 μl of the MTT solution (5 mg/ml) was added to each well, and incubated at 37° C. for 4 h. After removing the supernatant, 200 μl of dimethylsulfoxide (DMSO) was added to dissolve the crystals. Absorbance at 570 nm was then measured in a microplate reader. Viability was expressed as percentage of the vehicle-treated cells.

[1] = molecular target: T1, recombinant human 5-LO enzyme (Homo sapiens, UniProt P09917); experiment: Direct 5-LO inhibitory activity in a cell-free assay (H2DCF-DA fluorescence); format: biochemical; details: cell-free, recombinant human 5-LO; read-out: Inhibitory Activity IC50, Human recomb. 5-LO
T1 sequence (P09917 1-674): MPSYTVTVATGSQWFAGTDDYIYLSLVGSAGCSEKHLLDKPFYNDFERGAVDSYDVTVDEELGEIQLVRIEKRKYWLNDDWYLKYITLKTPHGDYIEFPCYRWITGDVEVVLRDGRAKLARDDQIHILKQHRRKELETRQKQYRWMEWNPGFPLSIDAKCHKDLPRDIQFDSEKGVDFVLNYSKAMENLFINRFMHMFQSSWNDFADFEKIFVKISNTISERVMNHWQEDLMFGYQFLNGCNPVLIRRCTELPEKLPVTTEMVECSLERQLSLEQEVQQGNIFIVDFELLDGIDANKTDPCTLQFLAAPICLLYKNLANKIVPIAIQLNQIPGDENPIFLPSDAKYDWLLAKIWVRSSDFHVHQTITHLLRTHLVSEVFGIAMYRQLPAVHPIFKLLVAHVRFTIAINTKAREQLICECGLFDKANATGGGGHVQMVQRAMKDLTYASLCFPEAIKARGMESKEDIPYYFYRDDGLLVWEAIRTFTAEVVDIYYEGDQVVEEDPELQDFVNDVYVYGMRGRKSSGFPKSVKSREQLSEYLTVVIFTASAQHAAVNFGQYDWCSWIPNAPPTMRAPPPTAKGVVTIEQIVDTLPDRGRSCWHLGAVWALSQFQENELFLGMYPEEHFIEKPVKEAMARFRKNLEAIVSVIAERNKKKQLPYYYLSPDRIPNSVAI
Method: H2DCF-DA (60 μM) was first pre-cleaved by incubating with 450 mU/ml recombinant human 5-LO enzyme in Tris buffer (containing 50 mM Tris, pH=7.5, 2 mM EDTA, 2 mM CaCl2), 1 mM dithiothreitol (DTT) and 0.6 U/ml glutathione peroxidase) for 10 min at room temperature. […] After 10 min incubation at room temperature, the reaction was started with the addition of 50 μl of the substrate solution (Tris buffer containing 20 μM ATP and 20 μM arachidonic acid). After a further 20 min, the reaction was terminated with 100 μl acetonitrile. Fluorescence was read at 500 nm excitation and 520 emission, with Novostar® microplate reader (BMG Labtech, Offenburg, Germany). Appropriate controls, including 100 μM nordihydroguaiaretic acid (NDGA), were included to isolate only the 5-LO-attributable, NDGA-inhibitable RFU values.

[2] = tested on: degranulation of bone marrow-derived mouse mast cells; experiment: Inhibition of degranulation (β-hexoseaminidase release) in allergen/IgE-activated BMMC; format: cell-based; details: anti-DNP IgE sensitized, DNP-BSA 30 ng/ml, 30 min
Source text: (§1) Inhibition of LTC4 release and degranulation in allergen/IgE-activated bone marrow-derived mouse mast cells (BMMC): Bone marrow-derived mast cells (BMMC) were generated from pathogen-free 5-7 week old male Balb/c mice according to the method of Davis et al., [2004] (Davis, B. J., et al., (2004), Journal of Immunology, 173: 6914-6920). Essentially, bone marrow cells were obtained by flushing of the femoral bone marrow and cultured in RPMI 1640 medium supplemented with 10% FBS, 100 U/ml penicillin, and 100 μg/ml streptomycin, 25 mM HEPES, 1.0 mM sodium pyruvate, 0.1 mM nonessential amino acids, 0.0035% 2-mercaptoethanol, and 30 ng/ml mouse recombinant IL-3, with culture medium replaced every two days. Cells were used after 4-8 weeks of culture, by which time at least 97% of the cells would have differentiated into mast cells.
The generated BMMCs were seeded at 5×10^4 cells/well in a 96-well flat-bottom culture plate and passively sensitized overnight with 0.5 μg/ml anti-DNP monoclonal IgE antibody (clone SPE-7, Sigma-Aldrich, St. Louis, Mo., USA). The cells were then washed twice to remove any unbound antibody and subsequently re-suspended in reaction buffer (135 mM NaCl, 5 mM KCl, 1.8 mM CaCl2), 1 mM MgCl2, 5.6 mM glucose, 0.05% BSA and 20 mM HEPES, pH 7.4). […] After 30 min incubation at 37° C., the amount of LTC4 released into the supernatant (as index of 5-LO activity) was determined by ELISA as described below.
The concurrently-released granular enzyme, β-hexoseaminidase (as index of degranulation) was determined as described below.
The beta-hexoseaminidase released into the supernatant by the degranulating BMMCs was determined colorimetrically using p-nitrophenyl-N-acetyl-β-D-glucosaminide as substrate. […] The absorbance of the colored product (p-nitrophenol) was then read at 405 nm in a microplate reader. Results were expressed as percentage of the total cell content (determined in cells lysed with 0.1% triton-x-100).

[3] = tested on: zymosan-induced peritonitis; experiment: Zymosan-induced peritoneal inflammation in mice; format: in vivo, mouse; details: 30 min before zymosan i.p., peritoneal exudate at 2 h
Source text: Inhibition of zymosan-induced peritoneal inflammation in mice: Female Balb/c mice, 6-8 weeks old, obtained from the Animal Resources Center of the Health Sciences Center, Kuwait University, were used. They were maintained under temperature-controlled conditions with an artificial 12-h light/dark cycle and allowed standard chow and water ad libitum. The study protocol was approved by the “Health Sciences Center Animal Welfare Committee” and complied with the “Guidelines for the Care and Use of Laboratory Animals” of the Health Sciences Centre, Kuwait University. The zymosan-induced peritonitis model-a recognized LT-mediated inflammatory reaction, described particularly in Hanke et al., 2013 ([…]., et al. (2013). Journal of medicinal chemistry, 56(22), 9031-9044) was used. […] After 30 min, all groups were injected intraperitonally with 0.2 ml of activated zymosan (2 mg/ml) except the control group that received 0.2 ml PBS. After 2 h, all animals were killed and the peritoneal exudate was collected by washing the cavity with 3 ml of heparinized (10 IU/ml) PBS.

[4] = tested on: LTC4 release from IgE/antigen-activated mouse mast cells (BMMC); experiment: Inhibition of LTC4 release in allergen/IgE-activated bone marrow-derived mouse mast cells; format: cell-based; details: BMMC, anti-DNP IgE sensitized, DNP-BSA 30 ng/ml, 30 min
Source text: as §1
The generated BMMCs were seeded at 5×10^4 cells/well in a 96-well flat-bottom culture plate and passively sensitized overnight with 0.5 μg/ml anti-DNP monoclonal IgE antibody (clone SPE-7, Sigma-Aldrich, St. Louis, Mo., USA). The cells were then washed twice to remove any unbound antibody and subsequently re-suspended in reaction buffer (135 mM NaCl, 5 mM KCl, 1.8 mM CaCl2), 1 mM MgCl2, 5.6 mM glucose, 0.05% BSA and 20 mM HEPES, pH 7.4). They were then pre-incubated with the test compounds (0.01-30 μM) or the solvent (0.05% DMSO) for 15 min before being stimulated with the specific antigen, DNP-BSA (30 ng/ml). After 30 min incubation at 37° C., the amount of LTC4 released into the supernatant (as index of 5-LO activity) was determined by ELISA as described below.
Assay of released leukotrienes/β-hexoseaminidase enzyme: Appropriately diluted supernatants were assayed for the released LTs (LTB4 and LTC4), by the enzyme immunoassay (EIA) method using assay kits supplied by R&D Systems (Minneapolis, Minn., USA) and following the manufacturer's instructions.

melting point [°C] | IC50 [1] [nM] | Structure (SMILES) | Effect on viability of isolated human monocytes (MTT) (isolated human monocytes) | Inhibition of degranulation (release of granular β-hexoseaminidase) (FIG. 2B) [2] | Net Exudate Vol ([3]; 10 mg/kg s.c.) [mL] | Total Cell No ([3]; 10 mg/kg s.c.) | Total LTC4 ([3]; 10 mg/kg s.c.) [ng] | Net Exudate Vol ([3]; 30 mg/kg s.c.) [mL] | Total Cell No ([3]; 30 mg/kg s.c.) | Total LTC4 ([3]; 30 mg/kg s.c.) [ng] | Inhibition of generation of LTC4 from IgE/allergen-activated mast cells (FIG. 2A) [4]
118.5 to 120.5 | 3400 | CCCCCC(=O)N(O)C[C@H]1CN(c2ccc(N3CCOCC3)c(F)c2)C(=O)O1 [PH-247, (R)—N-((3-(3-fluoro-4-morpholinophenyl)-2-oxooxazolidin-5-yl)methyl)-N-hydroxyhexanamide] | no significant effect on cell viability | – | – | – | – | – | – | – | –
123 to 125 | 1900 | CCCCCCC(=O)N(O)C[C@H]1CN(c2ccc(N3CCOCC3)c(F)c2)C(=O)O1 [PH-249, (R)—N-((3-(3-fluoro-4-morpholinophenyl)-2-oxooxazolidin-5-yl)methyl)-N-hydroxyheptanamide] | no significant effect on cell viability | able to inhibit degranulation | 0.16 ± 0.08 | 39.7 ± 6.6 ×10^6 | 107.2 ± 51.6 | 0.06 ± 0.01 | 17.8 ± 2.2 ×10^6 | 102.8 ± 20.9 | equally effective in inhibiting the generation of LTC4
